This experiment concerns MV-4-11 cells. The experiment in a line: Gene expression microarray analysis (Affymetrix PrimeView) and GSEA. Also on record: RFU PODN (11730768_x_at) / Fold change /veh PODN (11730768_x_at) / RFU LINC00158 (11744669_a_at) / Fold change /veh LINC00158 (11744669_a_at) / RFU DUSP10 (11751237_a_at) / Fold change /veh DUSP10 (11751237_a_at) / RFU ID3 (11757404_x_at) / Fold change /veh ID3 (11757404_x_at) / RFU PLEKHG5 (11737974_s_at) / Fold change /veh PLEKHG5 (11737974_s_at) / RFU LRRC4B (11730491_at) / Fold change /veh LRRC4B (11730491_at) / RFU GIMAP4 (11747438_a_at) / Fold change /veh GIMAP4 (11747438_a_at) / RFU KRT8 (11758183_x_at) / Fold change /veh KRT8 (11758183_x_at) / RFU CNN1 (11734310_a_at) / Fold change /veh CNN1 (11734310_a_at) / RFU VPS37D (11726825_at) / Fold change /veh VPS37D (11726825_at) / RFU C10orf10 (11716522_x_at) / Fold change /veh C10orf10 (11716522_x_at) / RFU KIR2DL2 /// KIR2DL4 /// KIR2DL5A /// KIR2DL5B /// KIR2DS1 /// KIR2DS2 /// KIR2DS3 /// KIR2DS4 /// KIR3DL3 /// KIR3DL3 /// KIR3DS1 (11738374_at) / Fold change /veh KIR2DL2 /// KIR2DL4 /// KIR2DL5A /// KIR2DL5B /// KIR2DS1 /// KIR2DS2 /// KIR2DS3 /// KIR2DS4 /// KIR3DL3 /// KIR3DL3 /// KIR3DS1 (11738374_at) / RFU C1QL1 (11718748_at) / Fold change /veh C1QL1 (11718748_at) / RFU TMPRSS4 (11747572_a_at) / Fold change /veh TMPRSS4 (11747572_a_at) / RFU HAMP (11756126_x_at) / Fold change /veh HAMP (11756126_x_at) / RFU RNFT2 (11725882_a_at) / Fold change /veh RNFT2 (11725882_a_at) / RFU NR4A2 (11747474_a_at) / Fold change /veh NR4A2 (11747474_a_at) / RFU ABCC12 (11746883_a_at) / Fold change /veh ABCC12 (11746883_a_at) / RFU TMEM136 (11760407_x_at) / Fold change /veh TMEM136 (11760407_x_at) / RFU CLDN22 /// WWC2 (11732394_at) / Fold change /veh CLDN22 /// WWC2 (11732394_at) / RFU HLA-DPB1 (11760878_x_at) / Fold change /veh HLA-DPB1 (11760878_x_at) / RFU SPINT1 (11716480_a_at) / Fold change /veh SPINT1 (11716480_a_at) / RFU GAP43 (11754022_s_at) / Fold change /veh GAP43 (11754022_s_at) / RFU A4GNT (11735810_at) / Fold change /veh A4GNT (11735810_at) / RFU PRB3 (11715151_x_at) / Fold change /veh PRB3 (11715151_x_at) / RFU TUBB4B (11761932_at) / Fold change /veh TUBB4B (11761932_at) / RFU CAPN14 (11732068_a_at) / Fold change /veh CAPN14 (11732068_a_at) / RFU TMCC2 (11721928_a_at) / Fold change /veh TMCC2 (11721928_a_at) / RFU IRGQ (11745062_a_at) / Fold change /veh IRGQ (11745062_a_at) / RFU FAM174B (11720279_a_at) / Fold change /veh FAM174B (11720279_a_at) / RFU TMPRSS4 (11748680_a_at) / Fold change /veh TMPRSS4 (11748680_a_at) / RFU FAM212B (11763350_a_at) / Fold change /veh FAM212B (11763350_a_at) / RFU PLEKHG5 (11743358_a_at) / Fold change /veh PLEKHG5 (11743358_a_at) / RFU ZSCAN30 (11745921_a_at) / Fold change /veh ZSCAN30 (11745921_a_at) / RFU CMKLR1 (11741424_a_at) / Fold change /veh CMKLR1 (11741424_a_at) / RFU LOC101060620 /// MAPK8IP1 (11723275_at) / Fold change /veh LOC101060620 /// MAPK8IP1 (11723275_at) / RFU SPTSSB (11747773_x_at) / Fold change /veh SPTSSB (11747773_x_at) / RFU PRSS12 (11739890_at) / Fold change /veh PRSS12 (11739890_at) / RFU BIN1 (11741810_x_at) / Fold change /veh BIN1 (11741810_x_at) / RFU WNT11 (11732464_a_at) / Fold change /veh WNT11 (11732464_a_at) / RFU C10orf10 (11716521_a_at) / Fold change /veh C10orf10 (11716521_a_at) / RFU C5orf56 (11738089_at) / Fold change /veh C5orf56 (11738089_at) / RFU CYB561 (11721691_x_at) / Fold change /veh CYB561 (11721691_x_at) / RFU ANKRD19P (11752326_a_at) / Fold change /veh ANKRD19P (11752326_a_at) / RFU OR2T12 /// OR2T33 /// OR2T8 (11738714_s_at) / Fold change /veh OR2T12 /// OR2T33 /// OR2T8 (11738714_s_at) / RFU VCAN (11748164_a_at) / Fold change /veh VCAN (11748164_a_at) / RFU JSRP1 (11732532_at) / Fold change /veh JSRP1 (11732532_at) / RFU KRTAP10-11 (11738290_x_at) / Fold change /veh KRTAP10-11 (11738290_x_at) / RFU MYO3A (11730013_a_at) / Fold change /veh MYO3A (11730013_a_at) / RFU EBF3 (11725865_a_at) / Fold change /veh EBF3 (11725865_a_at) / RFU CAMK2N1 (11719241_x_at) / Fold change /veh CAMK2N1 (11719241_x_at) / RFU C5orf56 (11738088_a_at) / Fold change /veh C5orf56 (11738088_a_at) / RFU OLFML3 (11715873_a_at) / Fold change /veh OLFML3 (11715873_a_at) / RFU LOC100653217 /// NTM (11731650_a_at) / Fold change /veh LOC100653217 /// NTM (11731650_a_at) / RFU MAPK11 (11762145_a_at) / Fold change /veh MAPK11 (11762145_a_at) / RFU FIZ1 (11724087_x_at) / Fold change /veh FIZ1 (11724087_x_at) / RFU OASL (11726364_x_at) / Fold change /veh OASL (11726364_x_at) / RFU SOX15 (11748057_x_at) / Fold change /veh SOX15 (11748057_x_at) / RFU CD79A (11719716_a_at) / Fold change /veh CD79A (11719716_a_at) / RFU HIST1H1D (11736915_at) / Fold change /veh HIST1H1D (11736915_at) / RFU CASKIN2 (11723855_a_at) / Fold change /veh CASKIN2 (11723855_a_at) / RFU LOC730098 (11760151_x_at) / Fold change /veh LOC730098 (11760151_x_at) / RFU OR4N2 (11742367_at) / Fold change /veh OR4N2 (11742367_at) / RFU PRRT2 (11749266_a_at) / Fold change /veh PRRT2 (11749266_a_at) / RFU SNX32 (11753110_a_at) / Fold change /veh SNX32 (11753110_a_at) / RFU CDHR5 (11726645_a_at) / Fold change /veh CDHR5 (11726645_a_at) / RFU RCAN1 (11760418_a_at) / Fold change /veh RCAN1 (11760418_a_at) / RFU FAM167A (11723789_a_at) / Fold change /veh FAM167A (11723789_a_at) / RFU FAM26E (11764081_at) / Fold change /veh FAM26E (11764081_at) / RFU ISYNA1 (11749810_s_at) / Fold change /veh ISYNA1 (11749810_s_at) / RFU ACY1 (11761880_at) / Fold change /veh ACY1 (11761880_at) / RFU 11764098_at / Fold change /veh 11764098_at / RFU SAMD14 (11745864_x_at) / Fold change /veh SAMD14 (11745864_x_at) / RFU NPB (11741838_a_at) / Fold change /veh NPB (11741838_a_at) / RFU TMPRSS6 (11731388_a_at) / Fold change /veh TMPRSS6 (11731388_a_at) / RFU KRTAP10-2 (11738614_at) / Fold change /veh KRTAP10-2 (11738614_at) / RFU ARHGAP8 /// PRR5-ARHGAP8 (11727945_x_at) / Fold change /veh ARHGAP8 /// PRR5-ARHGAP8 (11727945_x_at) / RFU KRTAP5-7 /// NADSYN1 (11734609_at) / Fold change /veh KRTAP5-7 /// NADSYN1 (11734609_at) / RFU RASL12 (11751679_a_at) / Fold change /veh RASL12 (11751679_a_at) / RFU CDKN2B (11736163_a_at) / Fold change /veh CDKN2B (11736163_a_at) / RFU PRF1 (11729649_at) / Fold change /veh PRF1 (11729649_at) / RFU, ZNF638 /// ZNF638-IT1 / Fold change vs veh, ZNF638 /// ZNF638-IT1 / RFU, PANK3 / Fold change vs veh, PANK3 / RFU, SH3YL1 / Fold change vs veh, SH3YL1 / RFU, ZEB2 / Fold change vs veh, ZEB2 / RFU, NRIP1 / Fold change vs veh, NRIP1 / RFU, PTTG1IP / Fold change vs veh, PTTG1IP / RFU, CAPN2 / Fold change vs veh, CAPN2 / RFU, MED14 / Fold change vs veh, MED14 / RFU, SNORA58 / Fold change vs veh, SNORA58 / RFU, C1orf63 / Fold change vs veh, C1orf63 / RFU, LRRFIP1 / Fold change vs veh, LRRFIP1 / RFU, NDUFAF7 / Fold change vs veh, NDUFAF7 / RFU, SLC12A2 / Fold change vs veh, SLC12A2 / RFU, IBTK / Fold change vs veh, IBTK / RFU, ESF1 / Fold change vs veh, ESF1 / Fold change vs veh, TMEM50B / RFU, TAOK1 / Fold change vs veh, TAOK1 / RFU, ACBD3 / Fold change vs veh, ACBD3 / RFU, TMA16 / Fold change vs veh, TMA16 / RFU, RWDD3 / Fold change vs veh, RWDD3 / RFU, BCAT1 / Fold change vs veh, BCAT1 / RFU, EDEM3 / Fold change vs veh, EDEM3 / RFU, TMEM33 / Fold change vs veh, TMEM33 / RFU, WDR75 / Fold change vs veh, WDR75 / RFU, AHCTF1 / Fold change vs veh, AHCTF1 / RFU, TFRC / Fold change vs veh, TFRC / RFU, ZDHHC17 / Fold change vs veh, ZDHHC17 / RFU, NOM1 / Fold change vs veh, NOM1 / RFU, ARL8B / Fold change vs veh, ARL8B / RFU, ZBTB11 / Fold change vs veh, ZBTB11 / RFU, TAMM41 / Fold change vs veh, TAMM41 / RFU, KIAA1704 /// LOC100996395 / Fold change vs veh, KIAA1704 /// LOC100996395 / RFU, ING1 / Fold change vs veh, ING1 / RFU, TRMT61B / Fold change vs veh, TRMT61B / RFU, FUBP3 / Fold change vs veh, FUBP3 / RFU, TP53 / Fold change vs veh, TP53 / RFU, TNKS2 / Fold change vs veh, TNKS2 / RFU, ZFP14 / Fold change vs veh, ZFP14 / RFU, ACTR2 / Fold change vs veh, ACTR2 / RFU, PPP3R1 / Fold change vs veh, PPP3R1 / RFU, PIK3R1 / Fold change vs veh, PIK3R1 / RFU, HNRNPA1 / Fold change vs veh, HNRNPA1 / RFU, RNF170 / Fold change vs veh, RNF170 / RFU, ZNF28 / Fold change vs veh, ZNF28 / RFU, RNGTT / Fold change vs veh, RNGTT / RFU, OGT / Fold change vs veh, OGT / RFU, BRD1 / Fold change vs veh, BRD1 / RFU, MARS / Fold change vs veh, MARS / RFU, ZNF655 / Fold change vs veh, ZNF655 / RFU, FAHD1 / Fold change vs veh, FAHD1 / RFU, BDP1 / Fold change vs veh, BDP1 / RFU, LRRCC1 / Fold change vs veh, LRRCC1 / RFU, ARID1A / Fold change vs veh, ARID1A / RFU, ZNF146 / Fold change vs veh, ZNF146 / RFU, ZNF330 / Fold change vs veh, ZNF330 / RFU, GPN3 / Fold change vs veh, GPN3 / RFU, C9orf123 / Fold change vs veh, C9orf123 / RFU, N4BP2L2 / Fold change vs veh, N4BP2L2 / RFU, ARFIP1 / Fold change vs veh, ARFIP1 / RFU, FAM179B / Fold change vs veh, FAM179B / RFU, BCL10 / Fold change vs veh, BCL10 / RFU, UHRF1BP1L / Fold change vs veh, UHRF1BP1L / RFU, BET1 / Fold change vs veh, BET1 / RFU, CNOT2 / Fold change vs veh, CNOT2 / RFU, ZNF268 / Fold change vs veh, ZNF268 / Fold change vs veh, ZNF507 / RFU, DGCR2 / Fold change vs veh, DGCR2 / RFU, WDSUB1 / Fold change vs veh, WDSUB1 / Fold change vs veh, HSP90B1 /// MIR3652 / RFU, ADSS / Fold change vs veh, ADSS / RFU, GK / Fold change vs veh, GK / RFU, ZNF148 / Fold change vs veh, ZNF148 / RFU, TAF9 / Fold change vs veh, TAF9 / RFU, SLC1A5 / Fold change vs veh, SLC1A5 / RFU, SLMO2 / Fold change vs veh, SLMO2 / RFU, ABCC4 / Fold change vs veh, ABCC4 / RFU, LOC101060439 /// RAP1B / Fold change vs veh, LOC101060439 /// RAP1B / RFU, RFX7 / Fold change vs veh, RFX7 / RFU, GTPBP10 / Fold change vs veh, GTPBP10 / RFU, CNEP1R1 / Fold change vs veh, CNEP1R1 / RFU, BIVM-ERCC5 /// ERCC5 / Fold change vs veh, BIVM-ERCC5 /// ERCC5 / RFU, ILF3 / Fold change vs veh, ILF3 / RFU 11762660_at / Fold change /veh 11762660_at / RFU VCAN (11757783_s_at) / Fold change /veh VCAN (11757783_s_at) / RFU DDX43 (11728927_at) / Fold change /veh DDX43 (11728927_at) / RFU KRT8 (11758188_x_at) / Fold change /veh KRT8 (11758188_x_at) / RFU NKD1 (11759106_at) / Fold change /veh NKD1 (11759106_at) / RFU SRD5A1 (11742802_a_at) / Fold change /veh SRD5A1 (11742802_a_at) / RFU TPSAB1 /// TPSB2 (11721975_s_at) / Fold change /veh TPSAB1 /// TPSB2 (11721975_s_at) / RFU GSTM3 (11746129_a_at) / Fold change /veh GSTM3 (11746129_a_at) / RFU IL23R (11737362_x_at) / Fold change /veh IL23R (11737362_x_at) / RFU TMEM51 (11727254_a_at) / Fold change /veh TMEM51 (11727254_a_at) / RFU PIWIL2 (11732686_x_at) / Fold change /veh PIWIL2 (11732686_x_at) / RFU ORM1 (11744905_x_at) / Fold change /veh ORM1 (11744905_x_at) / RFU CCDC152 (11743942_at) / Fold change /veh CCDC152 (11743942_at) / RFU ECM1 (11717891_a_at) / Fold change /veh ECM1 (11717891_a_at) / RFU IL23R (11748794_a_at) / Fold change /veh IL23R (11748794_a_at) / RFU TNFAIP8L3 (11732012_x_at) / Fold change /veh TNFAIP8L3 (11732012_x_at) / RFU MBOAT4 (11741988_at) / Fold change /veh MBOAT4 (11741988_at) / RFU 11764193_at / Fold change /veh 11764193_at / RFU TMEM53 (11763286_at) / Fold change /veh TMEM53 (11763286_at) / RFU MAGEB2 (11727129_at) / Fold change /veh MAGEB2 (11727129_at) / RFU TMEM200A (11744735_a_at) / Fold change /veh TMEM200A (11744735_a_at) / RFU CCDC152 (11751479_a_at) / Fold change /veh CCDC152 (11751479_a_at) / RFU FAM211A (11726209_a_at) / Fold change /veh FAM211A (11726209_a_at) / RFU RGS16 (11746705_a_at) / Fold change /veh RGS16 (11746705_a_at) / RFU VCAN (11755009_s_at) / Fold change /veh VCAN (11755009_s_at) / RFU RHOB (11743442_s_at) / Fold change /veh RHOB (11743442_s_at) / RFU RGS16 (11720943_a_at) / Fold change /veh RGS16 (11720943_a_at) / RFU RGS16 (11720944_at) / Fold change /veh RGS16 (11720944_at) / RFU, VPS4B / Fold change vs veh, VPS4B / RFU, CREB1 / Fold change vs veh, CREB1 / RFU, DNAJC13 / Fold change vs veh, DNAJC13 / RFU, GNAQ / Fold change vs veh, GNAQ / RFU, CDK5R1 / Fold change vs veh, CDK5R1 / RFU, ZRANB3 / Fold change vs veh, ZRANB3 / RFU, CUL4A / Fold change vs veh, CUL4A / RFU, CCNY / Fold change vs veh, CCNY / RFU, UFL1 / Fold change vs veh, UFL1 / RFU, COG3 / Fold change vs veh, COG3 / RFU, DIAPH2 / Fold change vs veh, DIAPH2 / RFU, SKA2 / Fold change vs veh, SKA2 / RFU, AFF3 / Fold change vs veh, AFF3 / RFU, LMF1 / Fold change vs veh, LMF1 / RFU, IPO11 / Fold change vs veh, IPO11 / RFU, DFFB / Fold change vs veh, DFFB / RFU, FOXP1 / Fold change vs veh, FOXP1 / RFU, CARD8 / Fold change vs veh, CARD8 / RFU, STRN3 / Fold change vs veh, STRN3 / RFU, ADK / Fold change vs veh, ADK / RFU, RASSF2 / Fold change vs veh, RASSF2 / RFU, WIPF1 / Fold change vs veh, WIPF1 / RFU, LARP1B / Fold change vs veh, LARP1B / RFU, RASA1 / Fold change vs veh, RASA1 / RFU, RB1 / Fold change vs veh, RB1 / RFU, PPFIA1 / Fold change vs veh, PPFIA1 / RFU, MAT2A / Fold change vs veh, MAT2A / RFU, CCT5 / Fold change vs veh, CCT5 / RFU, WDR92 / Fold change vs veh, WDR92 / RFU, CUX1 / Fold change vs veh, CUX1 / RFU, TTC7A / Fold change vs veh, TTC7A / RFU, TMEM135 / Fold change vs veh, TMEM135 / RFU, DEPTOR / Fold change vs veh, DEPTOR / RFU, CPM / Fold change vs veh, CPM / RFU, DNAJB6 / Fold change vs veh, DNAJB6 / RFU, CACNA2D3 / Fold change vs veh, CACNA2D3 / RFU, DTX4 / Fold change vs veh, DTX4 / RFU, TFCP2 / Fold change vs veh, TFCP2 / RFU, GMCL1 /// GMCL1P1 / Fold change vs veh, GMCL1 /// GMCL1P1 / RFU, AEBP2 / Fold change vs veh, AEBP2 / RFU, SNHG1 /// SNORD22 /// SNORD25 /// SNORD26 /// SNORD27 /// SNORD28 /// SNORD29 /// SNORD31 / Fold change vs veh, SNHG1 /// SNORD22 /// SNORD25 /// SNORD26 /// SNORD27 /// SNORD28 /// SNORD29 /// SNORD31 / Fold change (Aza/veh), C12orf56 (ProbeSet 11735607_a_at) / Fold change (ACY-1035/veh), C12orf56 (ProbeSet 11735607_a_at) / Fold change (Aza/veh), FGFR1OP (ProbeSet 11751329_s_at) / Fold change (ACY-1035/veh), FGFR1OP (ProbeSet 11751329_s_at) / Fold change (Aza/veh), VPS36 (ProbeSet 11739960_a_at) / Fold change (ACY-1035/veh), VPS36 (ProbeSet 11739960_a_at) / RFU SYPL1 (11715823_x_at) / Fold change /veh SYPL1 (11715823_x_at) / RFU IGFBP7 (11715501_s_at) / Fold change /veh IGFBP7 (11715501_s_at) / RFU REEP3 (11722064_at) / Fold change /veh REEP3 (11722064_at) / RFU IGLL1 (11728026_x_at) / Fold change /veh IGLL1 (11728026_x_at): dose or concentration left out as unconfirmed. It counts as cell-based, human. The settings on record: MV-4-11 cells, 48 hours.

Regarding `Nc1ncn([C@@H]2O[C@H](CO)[C@@H](O)[C@H]2O)c(=O)n1` [azacitidine], the “RFU VCAN (11757783_s_at)” value worked out at 10.94 RFU.

For the origin of these results see article PMC5218480 (PLoS ONE, 2017).
